# According to patent US20260125382A1, “COMPOUNDS FOR INHIBITING OR DEGRADING CDK2 AND/OR CDK9 AND MEDICINAL USE THEREOF” (KOREA RESEARCH INSTITUTE OF CHEMICAL TECHNOLOGY, priority 2022, published 2026):
# What was measured:
# CDK2 = target: T1, CDK2 (Homo sapiens, UniProt P24941); test: CDK protein degradation activity (Western blotting), CDK2; assay type: cell-based; details: MDA-MB-231 cells, 16 hours, Western blot
# T1 construct: endogenous in cells; host or cells: MDA-MB-231
# How it was run: (§1)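 CDK2 and CDK9 protein levels measured by Western blot with densitometry, using tubulin as loading reference. Cells were MDA-MB-231, exposed for 16 h to 100 nM, 1 μM or 10 μM compound or to DMSO.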
# CDK9 = target: T2, CDK9 (Homo sapiens, UniProt P50750); test: CDK protein degradation activity (Western blotting), CDK9; assay type: cell-based; details: MDA-MB-231 cells, 16 hours, Western blot
# T2 construct: endogenous in cells; host or cells: MDA-MB-231
# T2 sequence (P50750 whole entry): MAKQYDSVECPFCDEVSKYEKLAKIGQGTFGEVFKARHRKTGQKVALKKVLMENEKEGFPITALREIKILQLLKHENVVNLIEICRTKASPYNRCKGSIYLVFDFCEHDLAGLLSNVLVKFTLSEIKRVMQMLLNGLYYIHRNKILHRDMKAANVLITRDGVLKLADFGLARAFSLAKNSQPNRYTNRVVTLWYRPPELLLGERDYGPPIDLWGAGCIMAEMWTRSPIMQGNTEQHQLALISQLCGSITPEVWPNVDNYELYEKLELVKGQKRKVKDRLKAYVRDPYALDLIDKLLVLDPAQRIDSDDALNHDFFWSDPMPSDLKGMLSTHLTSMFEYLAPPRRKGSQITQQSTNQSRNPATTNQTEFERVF
# How it was run: as §1
structure (smiles),measurement,setting,value
"Cc1cccc(C(=O)N[C@H]2C[C@@H](n3cnc4c(Nc5ccc(N6CCN(C7CC8(CCN(C(=O)C9CN(c%10ccc%11c(c%10)C(=O)N(C%10CCC(=O)NC%10=O)C%11=O)C9)CC8)C7)CC6)cc5)ncnc43)C2)n1 (stereo partly drawn) [Compound 387, N-((1s,3s)-3-(6-((4-(4-(7-(1-(2-(2,6-dioxopiperidin-3-yl)-1,3-dioxoisoindolin-5-yl)azetidin-3-carbonyl)-7-azaspiro[3.5]nonan-2-yl)piperazin-1-yl)phenyl)amino)-9H-purin-9-yl)cyclobutyl)-6-methylpicolinamide]",Enzyme degradation CDK2 (% remaining) @ 0.1 μM,CDK2,50%
same,Enzyme degradation CDK2 (% remaining) @ 1 μM,CDK2,40%
same,Enzyme degradation CDK2 (% remaining) @ 10 μM,CDK2,40%
same,Enzyme degradation CDK9 (% remaining) @ 0.1 μM,CDK9,20%
same,Enzyme degradation CDK9 (% remaining) @ 1 μM,CDK9,0%
same,Enzyme degradation CDK9 (% remaining) @ 10 μM,CDK9,0%
"O=C1CC[C@H](N2C(=O)c3cccc(CCCN4CCC(CN5CCN(c6ccc(Nc7ncnc8c7ncn8C7CC(NC(=O)c8cccc(F)n8)C7)cc6)CC5)CC4)c3C2=O)C(=O)N1 (stereo partly drawn) [Compound 431, N-((1s,3s)-3-(6-((4-(4-((1-(3-(2-(2,6-dioxopiperidin-3-yl)-1,3-dioxoisoindolin-4-yl)propyl)piperidin-4-yl)methyl)piperazin-1-yl)phenyl)amino)-9H-purin-9-yl)cyclobutyl)-6-fluoropicolinamide]",Enzyme degradation CDK2 (% remaining) @ 0.1 μM,CDK2,30/30/30%
same,Enzyme degradation CDK2 (% remaining) @ 1 μM,CDK2,30/30/30%
same,Enzyme degradation CDK2 (% remaining) @ 10 μM,CDK2,30/30/30%
same,Enzyme degradation CDK9 (% remaining) @ 0.1 μM,CDK9,0/0/0%
same,Enzyme degradation CDK9 (% remaining) @ 1 μM,CDK9,0/0/0%
same,Enzyme degradation CDK9 (% remaining) @ 10 μM,CDK9,0/0/0%
"Cc1cccc(C(=O)NC2CC(n3cnc4c(Nc5ccc(N6CCN(CC7CCN(C(=O)C8CCN(c9cc%10c(cc9F)C(=O)N([C@H]9CCC(=O)NC9=O)C%10=O)CC8)CC7)CC6)cc5C)ncnc43)C2)n1 (stereo partly drawn) [Compound 477, N-((1s,3s)-3-(6-((4-(4-((1-(1-(2-(2,6-dioxopiperidin-3-yl)-6-fluoro-1,3-dioxoisoindolin-5-yl)piperidin-4-carbonyl)piperidin-4-yl)methyl)piperazin-1-yl)-2-methylphenyl)amino)-9H-purin-9-yl)cyclobutyl)-6-methylpicolinamide]",Enzyme degradation CDK2 (% remaining) @ 0.1 μM,CDK2,20/20/20%
same,Enzyme degradation CDK2 (% remaining) @ 1 μM,CDK2,20/20/20%
same,Enzyme degradation CDK2 (% remaining) @ 10 μM,CDK2,20/20/20%
same,Enzyme degradation CDK9 (% remaining) @ 0.1 μM,CDK9,30/30/30%
same,Enzyme degradation CDK9 (% remaining) @ 1 μM,CDK9,30/30/30%
same,Enzyme degradation CDK9 (% remaining) @ 10 μM,CDK9,30/30/30%
"Cc1cccc(C(=O)NC2CC(n3cnc4c(NCCCN5CCN(CC6CCN(C(=O)CNc7cccc8c7C(=O)N([C@@H]7CCC(=O)NC7=O)C8=O)CC6)CC5)ncnc43)C2)n1 (stereo partly drawn) [Compound 143, N-((1r,3r)-3-(6-((3-(4-((1-((2-(2,6-dioxopiperidin-3-yl)-1,3-dioxoisoindolin-4-yl)glycyl)piperidin-4-yl)methyl)piperazin-1-yl)propyl)amino)-9H-purin-9-yl)cyclobutyl)-6-methylpicolinamide]",Enzyme degradation CDK2 (% remaining) @ 0.1 μM,CDK2,80%
same,Enzyme degradation CDK2 (% remaining) @ 1 μM,CDK2,50%
same,Enzyme degradation CDK2 (% remaining) @ 10 μM,CDK2,100%
same,Enzyme degradation CDK9 (% remaining) @ 0.1 μM,CDK9,0/0/0%
same,Enzyme degradation CDK9 (% remaining) @ 1 μM,CDK9,0/0/0%
same,Enzyme degradation CDK9 (% remaining) @ 10 μM,CDK9,0/0/0%
